Entries after “also recorded” stand apart in the source; their conditions may differ. Like-named read-outs stand apart in the source and are kept apart here.
Key:
[1] = molecular target: T1, Enterobacter soli LF7 MarR_Es (Enterobacter soli, UniProt A0AAW8H3I9, A146S); assay: ITC IAA binding to MarR_Es; settings: 25 °C, IacR
T1 sequence (A0AAW8H3I9 1-157 A146S): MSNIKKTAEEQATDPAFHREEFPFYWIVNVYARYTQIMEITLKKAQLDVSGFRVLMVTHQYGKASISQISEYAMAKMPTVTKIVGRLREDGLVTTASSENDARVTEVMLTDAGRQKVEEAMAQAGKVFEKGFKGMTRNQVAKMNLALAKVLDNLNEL
Procedure: All ITC measurements were performed at 25 °C using an Auto-ITC200 microcalorimeter (MicroCal/GE Healthcare). The buffer employed was 20 mM HEPES, pH 7.4, 50 mM NaCl and 0.5% dimethly sulfoxide (DMSO) for protein/ligand binding and 20 mM HEPES, pH 7.4 and 300 mM NaCl for DNA/protein binding experiments. For ligand binding experiments, the calorimetry cell (volume 200 ml) was loaded with MarR wild-type, mutant or homologue protein at a concentration of 50 μM. The syringe was loaded with a ligand concentration of 0.5 or 2 mM. […] A typical injection protocol included a single 0.2 μl first injection followed by 20 1.5 μl injections of the syringe sample into the calorimetry cell. The spacing between injections was kept at 180 s and the reference power at 8 μcal s^−1. The data were analysed using Origin for ITC version 7.0 software supplied by the manufacturer and fit well to a one-site binding model. Two independent ITC measurements were performed for each condition.

[2] = molecular target: Variovorax paradoxus CL14 MarR_50; assay: ITC IAA binding to MarR_50 (IadR2); settings: 25 °C, IadR2 (MarR_50-like)
Procedure: (§1) The coding sequence for each gene can be found in Supplementary Table 10. MarR expression plasmids were synthesized as codon-optimized genes for E. coli expression by BioBasic in the pLIC-His N-term vector (pMCSG7) and transformed into E. coli BL21 (DE3) Gold cells for expression. […] At an OD600 of 0.8, protein expression was induced by the addition of 0.1 mM IPTG and incubation continued overnight. Cells were collected by centrifugation at 4,500 × g for 20 min at 4 °C in a Sorvall (model RC-3B) swinging bucket centrifuge. Cell pellets were resuspended in buffer A (20 mM potassium phosphate, pH 7.4, 50 mM imidazole, 500 mM NaCl), DNase, lysozyme and a Roche Complete EDTA-free protease inhibitor tablet. Resuspended cells were sonicated and clarified via centrifugation at 17,000 × g for 60 min in a Sorvall (model RC-5B) swinging bucket centrifuge. The lysate was applied to a nickel-nitrilotriacetic acid HP column (GE Healthcare) on an Aktaxpress Fast Performance Liquid Chromatography (FPLC) system (Amersham Bioscience) and washed with buffer A. Protein was eluted with buffer B (20 mM potassium phosphate, pH 7.4, 500 mM imidazole, 500 mM NaCl). Fractions containing the protein of interest were combined and passed over a HiLoadTM 16/60 SuperdexTM 200 gel filtration column. Proteins were eluted in S200 buffer (20 mM HEPES, pH 7.4, 300 mM NaCl). […]

MarR_73 S28A H32A R46A = assay: ITC IAA binding to MarR_73 S28A H32A R46A mutant; parameters: species or system Variovorax paradoxus CL14; settings: 25 °C
Procedure: as §1

[3] = molecular target: Pseudomonas putida 1290 MarR_iacR (Pseudomonas putida, UniProt B0FXI7); assay: ITC IAA binding to MarR_iacR; settings: 25 °C, IacR
Procedure: as §1

[4] = molecular target: Ruegaria pomeroyi MarR_3CDH (Ruegeria pomeroyi, UniProt Q5LTG1); assay: ITC IAA binding to MarR_3CDH; settings: 25 °C, IadR (MarR_73-like)
Procedure: The coding sequence for each gene can be found in Supplementary Table 10. MarR expression plasmids were synthesized as codon-optimized genes for E. coli expression by BioBasic in the pLIC-His N-term vector (pMCSG7) and transformed into E. coli BL21 (DE3) Gold cells for expression. […] At an OD600 of 0.8, protein expression was induced by the addition of 0.1 mM IPTG and incubation continued overnight. Cells were collected by centrifugation at 4,500 × g for 20 min at 4 °C in a Sorvall (model RC-3B) swinging bucket centrifuge. Cell pellets were resuspended in buffer A (20 mM potassium phosphate, pH 7.4, 50 mM imidazole, 500 mM NaCl), DNase, lysozyme and a Roche Complete EDTA-free protease inhibitor tablet. Resuspended cells were sonicated and clarified via centrifugation at 17,000 × g for 60 min in a Sorvall (model RC-5B) swinging bucket centrifuge. The lysate was applied to a nickel-nitrilotriacetic acid HP column (GE Healthcare) on an Aktaxpress Fast Performance Liquid Chromatography (FPLC) system (Amersham Bioscience) and washed with buffer A. Protein was eluted with buffer B (20 mM potassium phosphate, pH 7.4, 500 mM imidazole, 500 mM NaCl). Fractions containing the protein of interest were combined and passed over a HiLoadTM 16/60 SuperdexTM 200 gel filtration column. Proteins were eluted in S200 buffer (20 mM HEPES, pH 7.4, 300 mM NaCl). Fractions were combined and concentrated for long-term storage at −80 °C.
All ITC measurements were performed at 25 °C using an Auto-ITC200 microcalorimeter (MicroCal/GE Healthcare). The buffer employed was 20 mM HEPES, pH 7.4, 50 mM NaCl and 0.5% dimethly sulfoxide (DMSO) for protein/ligand binding and 20 mM HEPES, pH 7.4 and 300 mM NaCl for DNA/protein binding experiments. For ligand binding experiments, the calorimetry cell (volume […]) was loaded with MarR wild-type, mutant or homologue protein at a concentration of 50 μM. The syringe was loaded with a ligand concentration of 0.5 or 2 mM. […] A typical injection protocol included a single 0.2 μl first injection followed by 20 1.5 μl injections of the syringe sample into the calorimetry cell. The spacing between injections was kept at 180 s and the reference power at 8 μcal s^−1. […] Two independent ITC measurements were performed for each condition.

IAA degradation locus = assay: RNA-seq of V. paradoxus CL14 strains with and without IAA; format: cell-based, Variovorax paradoxus CL14; settings: Fig 2 f; for CL14wt_IAA (RNA-seq expression value): CL14 wild type with IAA; for d50_IAA (RNA-seq expression value): ΔMarR_50 with IAA; for d73_IAA (RNA-seq expression value): ΔMarR_73 with IAA; for diadDE_IAA (RNA-seq expression value): ΔiadDE with IAA
Procedure: V. paradoxus CL14 was grown in 5 ml cultures of M9 minimal medium supplemented with 15 mM succinate and 0.5% (v/v) ethanol alone or containing IAA. IAA was at a final concentration of 0.1 mg ml^−1 in the medium to which it was added. Cultures were prepared at a starting OD600 of 0.02 and incubated at 28 °C, shaking at 250 r.p.m. Cells from all samples were collected for RNA-seq at 18 h to ensure IAA was still present in the cultures of strains that degraded IAA most rapidly. Cells were pelleted by centrifuging the culture at 4,200 × g for 15 min and removing the supernatant. Cell pellets were frozen at −80 °C before RNA extraction. To extract RNA, cells were lysed in TRIzol reagent (Invitrogen) according to manufacturer instructions for lysis and phase separation. After these steps, RNA was purified from the aqueous phase using the RNeasy mini kit (Qiagen) including the optional on-column DNase digestion with RNase-free DNase set (Qiagen). Total RNA was quantified using the Qubit 2.0 fluorometer (Invitrogen) and RNA-seq libraries were prepared using the Universal Prokaryotic RNA-Seq Prokaryotic AnyDeplete kit (Tecan) according to manufacturer instructions. The resulting libraries were pooled and sequenced on the Illumina HiSeq4000 to generate 50 bp single-end reads.
The V. paradoxus CL14 RNA-seq sequence data were analysed as described previously. Briefly, the raw reads were mapped to the V. paradoxus CL14 genome (fasta file available at https://github.com/isaisg/variovoraxRGI/blob/master/rawdata/2643221508.fna) using bowtie2[53] with the ‘very sensitive’ flag. Hits to each individual coding sequence were counted and annotated using the function featureCounts from the R package Rsubread[54], inputting the V. paradoxus CL14 gff file (available at https://github.com/isaisg/variovoraxRGI/blob/master/rawdata/2643221508.gff) and using the default parameters with the flag allowMultiOverlap = FALSE. Finally, DESeq2[55] was used to estimate Differentially Expressed Genes (DEGs) between treatments, with the corresponding fold-change estimates and False Discovery Rate (FDR) adjusted P values. For visualization purposes, we performed z-score standardization of each gene across samples and we visualized this standardized expression values utilizing a heat map constructed using ggplot2[56].

[5] = molecular target: Bradyrhizobium japonicum MarR_Bj2; assay: ITC IAA binding to MarR_Bj2; settings: 25 °C, IadR2 (MarR_50-like)
Procedure: as §1

Sequence of Ruegaria pomeroyi MarR_3CDH (Q5LTG1 entry or part of it): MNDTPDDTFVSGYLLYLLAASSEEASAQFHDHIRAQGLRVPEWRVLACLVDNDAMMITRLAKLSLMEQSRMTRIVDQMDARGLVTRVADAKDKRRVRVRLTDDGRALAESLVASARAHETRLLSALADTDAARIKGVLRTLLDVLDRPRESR
Sequence of Pseudomonas putida 1290 MarR_iacR (B0FXI7 whole entry): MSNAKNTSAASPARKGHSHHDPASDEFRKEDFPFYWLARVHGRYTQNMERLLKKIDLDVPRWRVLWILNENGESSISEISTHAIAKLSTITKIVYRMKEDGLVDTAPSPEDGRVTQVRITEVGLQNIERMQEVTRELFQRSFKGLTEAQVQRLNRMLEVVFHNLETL

Q: For `O=C(O)Cc1c[nH]c2ccccc12` [IAA, indole-3-acetic acid], which N1 [1] is on record?
A: Its N1 is 0.967 ± 0.006.

Q: What about the KD1 [2] of the same molecule?
A: Its KD1 is “No Binding”.

Q: And the KD (MarR_73 S28A H32A R46A)?
A: Its KD is “No Binding”.

Q: And the N1 [3]?
A: Its N1 is 0.590± 0.032.

Q: And the Kd ([3]; read-out: KD1)?
A: Its Kd is 4450 ± 196 nM.

Q: And the N1 ([4]; first site)?
A: The N1 was 0.411 ± 0.012.

Q: And the Kd ([4]; first site, read-out: KD1)?
A: The Kd was 237 ± 99 nM.

Q: What about the N2 ([4]; second site) of the same molecule?
A: The N2 was 0.216 ± 0.011.

Q: What about the Kd ([4]; second site, read-out: KD2) of the same molecule?
A: Its Kd is 6 nM.

Q: And the “CL14wt_IAA (RNA-seq expression value)” value (IAA degradation locus; Gene 2643611541)?
A: The value was -0.7473.

Q: And the “d50_IAA (RNA-seq expression value)” value (IAA degradation locus; Gene 2643611541)?
A: Its value is 0.6042.

Q: And the “d73_IAA (RNA-seq expression value)” value (IAA degradation locus; Gene 2643611541)?
A: The value was 0.2688.

Q: What about the “diadDE_IAA (RNA-seq expression value)” value (IAA degradation locus; Gene 2643611541) of the same molecule?
A: The value was 0.4986.

Q: What about the “CL14wt_IAA (RNA-seq expression value)” value (IAA degradation locus; Gene 2643611542) of the same molecule?
A: The value was -0.07617.

Q: And the “d50_IAA (RNA-seq expression value)” value (IAA degradation locus; Gene 2643611542)?
A: Its value is 0.09619.

Q: And the “d73_IAA (RNA-seq expression value)” value (IAA degradation locus; Gene 2643611542)?
A: Its value is 0.02449.

Q: What about the “diadDE_IAA (RNA-seq expression value)” value (IAA degradation locus; Gene 2643611542) of the same molecule?
A: Its value is 0.1314.

Q: And the “CL14wt_IAA (RNA-seq expression value)” value (IAA degradation locus; Gene 2643611543)?
A: Its value is -0.001618.

Q: And the “d50_IAA (RNA-seq expression value)” value (IAA degradation locus; Gene 2643611543)?
A: Its value is 0.2002.

Q: And the “d73_IAA (RNA-seq expression value)” value (IAA degradation locus; Gene 2643611543)?
A: The value was 0.2405.

Q: And the “diadDE_IAA (RNA-seq expression value)” value (IAA degradation locus; Gene 2643611543)?
A: The value was 0.0895.

Q: What about the “CL14wt_IAA (RNA-seq expression value)” value (IAA degradation locus; Gene 2643611544) of the same molecule?
A: The value was -1.408.

Q: What about the “d50_IAA (RNA-seq expression value)” value (IAA degradation locus; Gene 2643611544) of the same molecule?
A: The value was -0.115.

Q: And the “d73_IAA (RNA-seq expression value)” value (IAA degradation locus; Gene 2643611544)?
A: The value was 0.2327.

Q: And the “diadDE_IAA (RNA-seq expression value)” value (IAA degradation locus; Gene 2643611544)?
A: Its value is 0.2436.

Q: What about the “CL14wt_IAA (RNA-seq expression value)” value (IAA degradation locus; Gene 2643611545) of the same molecule?
A: The value was -0.03496.

Q: What about the “d50_IAA (RNA-seq expression value)” value (IAA degradation locus; Gene 2643611545) of the same molecule?
A: Its value is 0.09136.

Q: What about the “d73_IAA (RNA-seq expression value)” value (IAA degradation locus; Gene 2643611545) of the same molecule?
A: Its value is -0.02991.

Q: And the “diadDE_IAA (RNA-seq expression value)” value (IAA degradation locus; Gene 2643611545)?
A: The value was 0.001153.

Q: What about the KD1 [5] of the same molecule?
A: The KD1 was “did not bind; also recorded: No Binding”.

From article PMC9613470, “Diverse MarR bacterial regulators of auxin catabolism in the plant microbiome” (Nature Microbiology, 2022)
